HPLC conversion, Km and kcat data for 4 compounds are collected here from publication PMC9481557, “Enzymatic synthesis of benzylisoquinoline alkaloids using a parallel cascade strategy and tyrosinase variants” (Nature Communications, 2022).

In one data set the target is T1, EfTyrDC (Enterococcus faecalis, UniProt Q838D6).
T1 construct: gene tdc; recombinant in E. coli BL21(DE3)
Nature of the data set: HPLC conversion. The class given is biochemical. As to conditions: PLP, HEPES pH 7.5, 37 °C, 6 h; coupled with CvTAm.

The next data set deals with T2, CvTAm (Chromobacterium violaceum, UniProt Q7NWG4).
T2 construct: gene CV_2025; recombinant in E. coli BL21(DE3)
Nature of the data set: HPLC conversion. Conditions: amine donor; pyruvate acceptor, PLP, HEPES pH 7.5, 37 °C, 6 h. The class given is biochemical.

For a further data set, the system named is NCCc1ccc(O)cc1. Nature of the data set: cells, lysate or membranes. As to conditions: apparent constant; N201S variant; copper enzyme; assay details in supplement. In kind it is cell-based, Candidatus Nitrosopumilus salarius.

T1 sequence (Q838D6 whole entry): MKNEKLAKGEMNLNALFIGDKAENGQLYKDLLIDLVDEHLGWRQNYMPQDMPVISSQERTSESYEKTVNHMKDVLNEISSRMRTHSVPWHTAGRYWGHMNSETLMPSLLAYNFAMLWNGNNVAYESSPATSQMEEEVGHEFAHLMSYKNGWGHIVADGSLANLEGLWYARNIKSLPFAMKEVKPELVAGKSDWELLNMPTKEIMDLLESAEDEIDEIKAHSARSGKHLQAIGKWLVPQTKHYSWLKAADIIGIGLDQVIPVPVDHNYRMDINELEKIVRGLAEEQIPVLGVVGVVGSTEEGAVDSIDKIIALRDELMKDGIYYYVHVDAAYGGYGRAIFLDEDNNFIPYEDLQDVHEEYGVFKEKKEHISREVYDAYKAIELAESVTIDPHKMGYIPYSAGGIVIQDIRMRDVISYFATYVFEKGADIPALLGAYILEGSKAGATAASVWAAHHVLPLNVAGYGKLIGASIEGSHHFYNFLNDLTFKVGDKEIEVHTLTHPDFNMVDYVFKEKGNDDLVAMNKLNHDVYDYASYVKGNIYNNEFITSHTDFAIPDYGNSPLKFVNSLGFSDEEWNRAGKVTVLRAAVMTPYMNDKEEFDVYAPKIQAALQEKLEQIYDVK
T2 sequence (Q7NWG4 entry or part of it): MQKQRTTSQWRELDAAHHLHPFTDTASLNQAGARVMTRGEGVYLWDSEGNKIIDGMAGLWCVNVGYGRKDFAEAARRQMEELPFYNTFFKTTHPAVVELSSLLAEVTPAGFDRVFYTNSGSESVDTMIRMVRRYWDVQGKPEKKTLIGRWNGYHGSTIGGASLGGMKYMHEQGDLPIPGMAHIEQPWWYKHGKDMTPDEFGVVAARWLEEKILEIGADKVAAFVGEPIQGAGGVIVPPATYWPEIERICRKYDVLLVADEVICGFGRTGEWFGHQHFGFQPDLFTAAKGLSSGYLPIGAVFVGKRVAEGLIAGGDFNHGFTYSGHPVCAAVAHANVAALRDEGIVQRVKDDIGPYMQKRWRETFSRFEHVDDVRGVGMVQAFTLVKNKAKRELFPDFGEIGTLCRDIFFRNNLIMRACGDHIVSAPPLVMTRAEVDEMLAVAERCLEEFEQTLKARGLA

In the case of `N[C@@H](Cc1ccc(O)c(Cl)c1)C(=O)O` [compound 12, 3-Cl-L-tyrosine], at EfTyrDC, the HPLC conversion entry is “All of the selected substrates were readily accepted by EfTyrDC and CvTAm”. The same measure, in the same setting: for `N[C@@H](Cc1cccc(O)c1)C(=O)O` [compound 9, meta-L-tyrosine] the value was “All of the selected substrates were readily accepted by EfTyrDC and CvTAm”. For the compound `NCCCc1ccccc1` [compound 14, 3-phenyl-1-propylamine], the HPLC conversion entry at CvTAm was “All of the selected substrates were readily accepted by EfTyrDC and CvTAm”. Turning to “CnTYR (Candidatus Nitrosopumilus salarius BD31; N201S)”, in the data set with NCCc1ccc(O)cc1, the Km stood at 1780 µM and the kcat was 197.5 s⁻¹.

As usually defined, the Km is the substrate concentration at which the rate is half of its maximum. A word on the kcat: it is the maximal rate divided by the concentration of active sites.
